# Experimental data from a melting point compilation (Tetko et al.).
row,SMILES,melting point
1,O=C(O)C(Cc1c[nH]c2ccccc12)NS(=O)(=O)c1ccc(Cl)c(C(F)(F)F)c1 (stereo unspecified),185 to 187 °C
2,Cc1cc(C(=O)O)c2c(C)nn(C(C)(C)C)c2n1,189 to 191 °C
3,O=C(O)C1CCN(c2cccc(Br)c2)C1=O (stereo unspecified),144 to 146 °C
4,CC(=O)NCc1ccc(S(=O)(=O)Cl)s1,80 to 82 °C
5,N#CSCC(=O)c1ccccc1Cl,56 to 58 °C
6,CC(C)c1cc(O)ncn1,131 to 133 °C
7,COc1cccc(Cn2ccc3ccc(N)cc32)c1,59 to 61 °C
8,CCOC(=O)c1[nH]c(C)c(C(=O)O)c1C,103 to 105 °C
9,COc1ccc2ccc(-c3nn(-c4ccccc4)cc3C(=O)O)cc2c1,254 to 256 °C
10,O=C(O)CCCc1ccc(O)cc1,106 to 108 °C
11,O=C(NCc1ccccc1)c1ccnc(Cl)c1,99 to 101 °C
12,NC(C(=O)O)c1ccc(Br)cc1 (stereo unspecified),249 to 251 °C
13,CC(C)(C)C(=O)Cn1cc(C(=O)O)nn1,198 to 200 °C
14,Nc1cc(N2C(=O)CCC2=O)ccc1F,215 to 217 °C
15,Clc1cccc2c(CBr)csc12,84 to 86 °C
16,CCCn1c(=O)n(CC(=O)O)c2ccccc21,173 to 175 °C
17,CS(=O)(=O)CCCBr,35 to 37 °C
18,Cc1cc(O)cc(=O)n1C(C)C(=O)O (stereo unspecified),258 to 260 °C
19,COCCOc1ccc2[nH]ccc2c1,61 to 63 °C
20,Nc1nccc(-c2cccnc2)n1,188 to 190 °C
21,CN(CC(=O)N1CCOCC1)C(=O)CCl,75 to 77 °C
22,c1ccc2c(c1)CC(n1cccn1)CN2 (stereo unspecified),102 to 104 °C
23,O=C(O)Cc1ccc(NC(=O)c2ccc(Br)o2)cc1,199 to 201 °C
24,O=C(O)c1ccc(=O)n(CCOc2ccccc2)n1,138 to 140 °C
25,COC(=O)c1sc2nc(C)nc(Cl)c2c1C,149 to 151 °C

row,SMILES,melting point
1,CCCC(CN)C(=O)O (stereo unspecified),219 to 221 °C
2,COc1ncc(N)cc1C(N)=O,144 to 146 °C
3,CS(=O)(=O)Cc1nc(=N)o[nH]1,158 to 160 °C
4,Nc1nc(Cl)nnc1Cl,198 to 200 °C
5,O=C(O)c1cc(=O)n(-c2ccccc2)[nH]1,256 to 258 °C
6,O=S(=O)(Cl)CCOc1ccc(F)cc1,34 to 36 °C
7,CC(C)(C)NCCC(N)=O,95 to 97 °C
8,CC(=O)Nc1c[nH]c(C)c1C(=O)O,183 to 185 °C
9,N#Cc1cc(C(=O)c2ccccc2O)cn(-c2ccccn2)c1=O,147 to 150 °C
10,CCOc1ccc([N+](=O)[O-])cc1CO,102 to 104 °C
11,Nc1nc(-c2cccc(Cl)c2)ns1,149 to 151 °C
12,Nc1nonc1-c1cccc(Cl)c1,133 to 135 °C
13,Cc1cc(C(C#N)c2ccc(Cl)cc2)c(Cl)cc1N (stereo unspecified),147 to 153 °C
14,NC(=O)c1cc(F)ccc1Br,152 to 154 °C
15,Cc1nc(COc2ccc(C=O)cc2)no1,57 to 59 °C
16,CCCC(=O)Nc1cccc(N)c1C,106 to 108 °C
17,Clc1cc(-c2cccnc2)nc2ncnn12,175 to 177 °C
18,COc1cccc(CNC(=O)n2ccnc2)c1,98 to 100 °C
19,Nc1cc(C(F)(F)F)c[nH]c1=O,96 to 98 °C
20,CC1CN(c2ccc(NC(=O)OCC(F)(F)F)cc2F)CC(C)O1 (stereo unspecified),130 to 132 °C
21,NS(=O)(=O)c1cccs1,142 to 144 °C
22,CC(C)(C)OC(=O)NCC#N,53 to 57 °C
23,C#CCN1CCCCC1C(=O)O (stereo unspecified),177 to 179 °C
24,COC(=O)c1sc(N)c(C(=O)OC)c1CBr,163 to 165 °C
25,Cc1cc(C)cc(N(CCC#N)C(=O)CCl)c1,67 to 69 °C

row,SMILES,melting point
1,CNCC1CCN(CC(O)c2ccccc2)CC1 (stereo unspecified),47 to 49 °C
2,Cc1ccccc1-n1c(S)nc2sc3c(c2c1=O)CCC(C)C3 (stereo unspecified),230 to 232 °C
3,CCC(=O)CNC(=O)CCl,81 to 83 °C
4,NC(=NO)c1cccc(OCc2cccnc2)c1,127 to 129 °C
5,CCC(Br)C(=O)Nc1cc(C)on1 (stereo unspecified),103 to 105 °C
6,CC1(c2ccc(F)cc2Cl)NC(=O)NC1=O (stereo unspecified),214 to 216 °C
7,Cc1ccc(-n2nc(C)cc2N)nn1,119 to 121 °C
8,O=S(=O)(Cl)c1cc2c(cc1Cl)OCCO2,139 to 141 °C
9,COc1ccccc1CC(C)CC(=O)O (stereo unspecified),49 to 51 °C
10,Cc1cc(C=O)c(C)[nH]1,139 to 141 °C
11,O=C1CCc2[nH]c3ccccc3c2C1,129 to 131 °C
12,O=C1NC(=O)N2CCCC12 (stereo unspecified),149 to 151 °C
13,NCCc1ccc(S(=O)(=O)N2CCCCC2)s1,74 to 76 °C
14,NS(=O)(=O)c1c(Cl)nc2ccccn12,174 to 176 °C
15,CC(=O)Nc1c(Br)cccc1[N+](=O)[O-],192 to 194 °C
16,NS(=O)(=O)c1ccc(-c2ccc(Br)cc2)cc1,207 to 209 °C
17,NC(C(=O)O)c1ccc(Cl)cc1Cl (stereo unspecified),215 to 217 °C
18,O=C(O)Cn1cccc(C(F)(F)F)c1=O,199 to 201 °C
19,O=C(O)c1csc(Cc2cccc(F)c2)n1,149 to 151 °C
20,CNS(=O)(=O)c1ccc(N)cc1,110 to 112 °C
21,CC(O)C(=O)Nc1ccccc1 (stereo unspecified),52 to 54 °C
22,CC(C)(C)OC(=O)NNC(=O)C(F)(F)F,119 to 121 °C
23,Nc1nc(-c2ccccc2)c(-c2ncc[nH]2)s1,256 to 258 °C
24,NNS(=O)(=O)Cc1ccc([N+](=O)[O-])cc1,139 to 141 °C
25,O=C(O)c1n[nH]c2c1CCC2,287 to 289 °C

row,SMILES,melting point
1,O=c1cc2c(n[nH]1)CCC2,209 to 211 °C
2,Cn1cnc([N+](=O)[O-])c1Oc1ccc(Br)cc1,129 to 131 °C
3,CCCS(=O)(=O)Nc1ccc(C(=O)O)cc1,187 to 189 °C
4,O=C1CCCOc2cc(Br)ccc21,39 to 41 °C
5,Cc1ccc(C(=O)CBr)cc1C,63 to 65 °C
6,Nc1sc2c(c1C(=O)N1CCOCC1)CCCC2,90 to 92 °C
7,O=C(O)C1Cc2ccccc2S1 (stereo unspecified),107 to 109 °C
8,Cn1cc(C=CC(=O)O)c2ccccc21,139 to 141 °C
9,Cc1nc(-c2cc(C(=O)O)cs2)cs1,226 to 228 °C
10,[N-]=[N+]=Nc1ccc(Cl)cc1C(F)(F)F,32 to 34 °C
11,CCS(=O)(=O)c1ccc(Br)cc1,53 to 55 °C
12,CC(C)(C#N)Nc1ccccc1,89 to 91 °C
13,COC(=O)Cc1c(C(=O)OC)sc2nc(CCl)[nH]c(=O)c12,208 to 210 °C
14,NNC(=O)Cc1cccs1,64 to 66 °C
15,CNc1snc(C)c1C(=O)O,151 to 153 °C
16,Cc1cc(Br)ncc1[N+](=O)[O-],64 to 66 °C
17,Nn1c(S)nnc1-c1cccnc1,190 to 192 °C
18,O=C(O)C(Oc1ccc(F)cc1F)c1ccccc1 (stereo unspecified),96 to 98 °C
19,Nc1ncn(CC(=O)NCc2ccccc2)n1,181 to 183 °C
20,Nc1ncn(Cc2ccc(Cl)cc2)n1,156 to 158 °C
21,O=C(O)c1cc(-c2ccc(F)cc2)nc2onc(C3CC3)c12,229 to 231 °C
22,CC(=O)c1ccc(S(=O)(=O)CC(F)(F)F)cc1,102 to 104 °C
23,NS(=O)(=O)c1ccccc1S(=O)(=O)Cl,179 to 181 °C
24,S=C1CCCCN1,92 to 94 °C
25,CC(C)CN1CC(C(=O)O)CC1=O (stereo unspecified),83 to 85 °C

row,SMILES,melting point
1,CSc1nn(C)c(N)c1C#N,123 to 125 °C
2,N#Cc1cccc(-n2ccnc2)c1,161 to 163 °C
3,NS(=O)(=O)c1ccc(S)nc1,242 to 244 °C
4,Cc1ccc(-c2cnnc(N)n2)o1,274 to 276 °C
5,O=C(O)c1csc(C(=O)O)c1,279 to 281 °C
6,NS(=O)(=O)c1cc(Br)ccc1Cl,179 to 181 °C
7,NC(=NO)c1ccc(Oc2ccccc2)nc1,159 to 161 °C
8,Cc1cc(C(=O)O)c(F)cc1F,159 to 161 °C
9,COc1ccccc1C(=O)/C=C1\NC(=O)CS1,173 to 175 °C
10,Nc1nc(-c2ccccc2)c(-c2ccccc2)o1,150 to 152 °C
11,CC(C)(CO)C(CN)c1ccccc1 (stereo unspecified),116 to 118 °C
12,CCS(=O)(=O)c1ccc2oc(S)nc2c1,188 to 190 °C
13,FC(F)(F)c1ccc(C2CCCCN2)cc1 (stereo unspecified),36 to 38 °C
14,CN1CCN(c2ccc(C=O)cc2F)CC1,65 to 67 °C
15,Cc1ccc(N2CCC(Br)C2=O)cc1 (stereo unspecified),83 to 85 °C
16,CC(C)(C)OC(=O)NC1(CC(=O)O)CCC1,126 to 128 °C
17,Cc1ccc(-c2nc(N)sc2C)s1,127 to 129 °C
18,CS(=O)(=O)OCCN1C(=O)c2ccccc2C1=O,140 to 142 °C
19,O=C(O)c1cccnc1Oc1cccnc1,190 to 192 °C
20,O=C(CCl)NC1CCS(=O)(=O)C1 (stereo unspecified),89 to 98 °C
21,O=C(O)c1ccc2c(c1)COC2,164 to 166 °C
22,CC(C)(C)OC(=O)N1CCc2nc(N)sc2C1,226 to 228 °C
23,COc1ccc(C(=O)NCCCC(=O)O)cc1,122 to 124 °C
24,CS(=O)(=O)c1ccc(OCCBr)cc1,100 to 102 °C
25,NS(=O)(=O)c1ccc2c(c1)CCCC2,135 to 137 °C

row,SMILES,melting point
1,CC1=NN(C)C(=O)C1C (stereo unspecified),132 to 134 °C
2,N=c1[nH]cnn1-c1ccccc1,148 to 150 °C
3,Cc1cc(Br)c2c(c1)C(=O)CCO2,84 to 86 °C
4,CNC(=O)CC(N)=S,133 to 135 °C
5,O=[N+]([O-])c1c(NC2CC2)cccc1NC1CC1,116 to 118 °C
6,O=C(O)CNS(=O)(=O)c1ccc2c(c1)OCCCO2,75 to 77 °C
7,NC(CC(=O)O)C1CCOCC1 (stereo unspecified),228 to 230 °C
8,O=C(NCC(F)(F)F)OCC(F)(F)F,53 to 55 °C
9,O=C(CN1CCNCC1)NC1CC1,22 to 24 °C
10,NS(=O)(=O)N1CCc2ccccc2C1,159 to 161 °C
11,Clc1ccc(Cl)c(OCC2CO2)c1 (stereo unspecified),62 to 64 °C
12,O=C(O)CCC(=O)N1CCSc2ccccc21,134 to 136 °C
13,Cc1cc(C)cc(CCC(=O)O)c1,49 to 51 °C
14,O=C(O)CCc1ccc(C(F)(F)F)cc1,106 to 110 °C
15,O=C(O)c1cnc(-c2ccccc2F)s1,187 to 189 °C
16,CC(C)c1c(C(=O)O)cnc2ncnn12,207 to 209 °C
17,CC(C)(C)OC(=O)NCCC1CNc2ccccc21 (stereo unspecified),90 to 92 °C
18,Nc1cc(-c2ccc(I)cc2)[nH]n1,186 to 188 °C
19,OCC1CCCN(c2cc(Cl)ncn2)C1 (stereo unspecified),111 to 113 °C
20,CNS(=O)(=O)c1ccc(-c2ccccc2OC(F)(F)F)c(C(=O)O)c1,172 to 174 °C
21,Cc1c([N+](=O)[O-])cc(C(=O)O)cc1S(=O)(=O)Cl,176 to 178 °C
